Assay [1] can be described thus: Weight loss in obese males, gel tabs on weekdays for 2 months. The assay is classed as in vivo, human. The following applies: 2.5 mg gel tab every morning on weekdays. The protocol: 12 males all weighing between 250 and 275 lbs and all having BMI indexes between 30 and 35 kg/m^2 are split into two groups. The first is provided with placebo gel tabs; the second with indistinguishable gel tabs containing 2.5 mg of purified synthetically produced psilocin in a pharmaceutically acceptable carrier. Both groups are instructed to take one gel tab every morning, before breakfast, on weekdays, with weekends off, for 2 months. At the end of the two months, the first (placebo) group is found to have a similar weight as before the treatment, whereas the treatment group loses an average of 12 lbs each.

Assay [2] in a line: Weight gain of rats on a high calorie diet, once daily psilocybin for five days. In kind it is in vivo, Sprague-Dawley rats. The note with it: for total weight gain over the 5 day period: control 27.8. The protocol:
In order to determine whether psilocybin has anorectic—and therefore weight loss—properties, a preclinical study of the drug was conducted, using a well-validated animal model. Rodent models of food consumption and weight gain have a strong homology with humans, as rodents are omnivores with a very similar metabolic physiology. […] The goal of the present study was to cause accelerated weight gain with a high calorie diet, consisting of a highly palatable food with a large proportion of fat and carbohydrate, compared to standard animal food, which is designed to maintain a healthy weight. We evaluated whether treatment with two different doses of psilocybin could reduce the accelerated weight gain caused by this diet.
Adult, male Sprague-Dawley rats were purchased from the animal supplier, and then housed in pairs in polycarbonate cages, with access to water and standard rat food ad libitum. Rats were given a period of time to acclimate to the animal colony. They were then all given unlimited access to a highly palatable diet that is very high in carbohydrate and fat (consisting predominantly of a hazelnut-flavored chocolate spread combined with peanut butter) that has been used routinely in multiple published studies with rats to study rapid weight gain (Hansen et al., Acta pharmacologica Sinica. 2012; 33(2):194-200). Animals were randomly assigned to one of three treatment groups, which consisted of once daily administration of either a lower dose (5 mg/kg; n=7 animals) of psilocybin, a higher dose (20 mg/kg; n=7 animals) of psilocybin, or no psilocybin (n=12 animals). The psilocybin was supplied by the Katz Group at the University of Alberta, and was legally approved by an exemption from Health Canada.
Rats were administered the drug approximately two hours before the lights went off in the animal colony, which is when feeding typically commences. Animals were free to consume as much of the regular rat food or high calorie diet as they wished. They were weighed each day prior to drug treatment, to determine how much weight had been gained in the previous 24 hours. The study administered the drug over five consecutive days. Data were statistically analyzed by (SPSS Version 24 software package) using a one-way Analysis of Variance (ANOVA) with a LSD-post hoc test to detect between-group differences.

Assay [3] deals with compulsive eating disorder. Kind of assay: Self-reported instances of compulsive eating over two months. The note with it: once a day with breakfast for two months; compared to first two months without treatment.

For the molecule `CN(C)CCc1c[nH]c2cccc(O)c12` [psilocin, 4-hydroxy-N,N-dimethyltryptamine], in assay [1], the fasting glucose levels entry is “lower fasting glucose levels”, the insulin resistance result is given as “decreased insulin resistance”, the levels of hypertension result was “lower levels of hypertension” and the “lipid count in the blood stream” value is on record as “lower lipid count in the blood stream”. The average weight loss in assay [1] (males 250-275 lbs, BMI 30-35) was 12 lbs.
In the case of `CN(C)CCc1c[nH]c2cccc(OP(=O)(O)O)c12` [psilocybin], the “reduction in weight gain vs control” value was determined as 31% in assay [2] (5 mg/kg once daily, 5 days) and 28% in assay [2] (20 mg/kg once daily, 5 days). The results for the “total weight gain over the 5 day period” value in assay [2] (5 mg/kg once daily) and in assay [2] (20 mg/kg once daily) were 19.4 grams and 20.1 grams, respectively. Besides, the “cumulative weight gain, day-by-day comparison with controls” value is listed as “significantly reduced weight gain compared to controls by Day 3” in assay [2] (20 mg/kg); “significantly decreased weight gain compared to controls” in assay [2] (both psilocybin-treated groups (5 and 20 mg/kg)). For the same molecule, the “relative weight gain, day-by-day comparison with controls” value in assay [2] (20 mg/kg) is on record as “gained statistically less relative weight by day 3”; in assay [2] (both psilocybin groups (5 and 20 mg/kg), p<0.05), “gained less relative weight by day 4”. For the same molecule, the “decrease of weight gain (summary)” value in assay [2] (both doses of psilocybin) is recorded as “approximately one third”. In addition, in assay [2] (both psilocybin groups (5 and 20 mg/kg), 5 days, controls 8.4%), the “total relative weight gain (relative to baseline weight)” value came to 5.7%. Further, the “decrease in relative weight gain vs controls” value in assay [2] (both psilocybin groups (5 and 20 mg/kg), 5 days, p=0.01) amounted to 32%. For the same molecule, the “weight gain per day” value in assay [2] (both psilocybin-treated groups (5 and 20 mg/kg once daily), control 5-8) was 1-8 grams per day. Further, the “self-reported instances of compulsive eating” value in assay [3] was “decrease in compulsive eating”.

(Values after patent publication US20230021957A1, “USE OF PSILOCIN, […] ANALOGS THEREOF IN WEIGHT LOSS, TREATMENT OF OBESITY AND COMPULSIVE EATING DISORDER” (NEONMIND BIOSCIENCES INC., priority 2019, published 2023).)
